Test results reported in patent publication US10889553B2, “Asymmetric triazole benzamide derivatives and the compositions and methods of treatment regarding the same” (NysnoBio Ireland DAC, priority 2017, dated 2021).

Assays:
[1] = system: subcutaneous HCT-116 (colon cancer) xenograft; assay: In vivo cancer xenograft assay; details: 5 mg/kg daily IP, up to 26 days, HCT-116 xenograft in nude mice (FIG. 1)
Method: Each mouse was inoculated subcutaneously at the flank region with either HCT-116 cells (1.0×106) in 0.1 ml of 1×PBS mixed with Matrigel (1:1) for tumor development and xenotransplantation.
The vehicle with or without drug is administered to the mouse by intraperitoneal injection. The formulation with respective drug is as follows: • 10% —DMA: N,N-Dimethyl acetamide • 15% —Solutol HS 15: Macrogol 15 Hydroxy Stearate, Polyethylene glycol-15-hydroxystrerate; and 75%-20% aqueous HP-β-CD: Hydroxypropyl-beta-cyclodextrin
Before grouping and treatment, all animals were weighed and the tumor volumes were confirmed (approx. 120-150 mm^3) using electronic caliper. Since the tumor volume can affect the effectiveness of any given treatment, mice were assigned into groups using randomized block design as following: First, the experimental animals were divided into homogeneous blocks based on their tumor volume. […]
After tumor cells were inoculated, the animals were checked daily for morbidity and mortality. […] Death and observed clinical signs were recorded. Tumor volumes were measured every three days in two dimensions using an electronic caliper, and the volume data were expressed in mm^3 using the formula: V=0.5 a×b2 where a and b are the long and short diameters of the tumor, respectively. Tumor volume average is then recorded for each day for groups 1-4 until day 26.

[2] = system: S-HeLa stably expressing a YFP-Parkin fusion protein; assay: Mitophagy cellular assay; assay type: cell-based; details: YFP-Parkin HeLa cells, compound with 6 μM CCCP, Tomm20 negative cells (FIG. 4)
Method: The mitophagy cellular assay was performed as follows:
S-HeLa stably expressing a YFP-Parkin fusion protein were utilised in high content screening assays to assess Parkin-dependent endpoints. 4000 cells were seeded in each well of a 96 well plate (Perkin Elmer ViewPlate-96 F TC, cat. N. 6005182) and left to grow for 24 hours. Cells were then incubated with vehicle (DMSO) or increasing concentrations of compound (1, 2.5, 5, 10 μM) for 1 hour prior to adding 6 μM carbonyl cyanide m-chlorophenyl hydrazone (CCCP), each condition run in replicate of three. After 20 hours, the cells were processed for immunofluorescence.
Samples were fixed in 4% PFA for 25 minutes RT and permeabilized with PBS 0.1% Triton-X100 for 3 minutes on ice, blocked with PBS 3% BSA, 0.3% Triton-X100 for 2 hours RT, followed by overnight incubation with primary antibody at 4° C. […] 18 images were acquired for each well using the following combination of excitation/emission filters: Hoechst33342 was excited through a 350/50 nm band pass filter and fluorescence intensity was collected through a 460/30 band pass filter. YFP was excited through a 500/20 nm band pass filter and fluorescence intensity was collected through a 540/35 band pass filter. DyLight 649 was excited through a 640/30 nm band pass filter and fluorescence intensity was collected through 700/75 band pass filter. […]

5-HT2B (h) = 5-HT2B (h) (Homo sapiens, UniProt P41595); assay: Selectivity screen, radioligand displacement; assay type: binding; details: read-out: % Inhib 5-HT2B (h)
Text: (§1) If the % inhibition is less than 50%, the test compounds is consider to have no effect.

D2S (h) = D2S (h) (Homo sapiens, UniProt P14416); assay: Selectivity screen, radioligand displacement; assay type: binding; details: read-out: % Inhib D2S (h)
Text: as §1

Lck kinase (h) = Lck kinase (h) (Homo sapiens, UniProt P06239); assay: Selectivity screen, radioligand displacement; assay type: binding; details: read-out: % Inhib Lck kinase (h)
Text: as §1

[3] = molecular target: N neuronal alpha 4beta 2 (h) (Homo sapiens, UniProt P17787+P43681); assay: Selectivity screen, radioligand displacement; assay type: binding; details: read-out: % Inhib N neuronal alpha 4beta 2 (h)
Text: as §1

PDE3A (h) = PDE3A (h) (Homo sapiens, UniProt Q14432); assay: Selectivity screen, radioligand displacement; assay type: binding; details: read-out: % Inhib PDE3A (h)
Text: as §1

V1a (h) = V1a (h) (Homo sapiens, UniProt P37288); assay: Selectivity screen, radioligand displacement; assay type: binding; details: read-out: % Inhib V1a (h)
Text: as §1

mu (MOP) (h) = mu (MOP) (h) (Homo sapiens, UniProt P35372); assay: Selectivity screen, radioligand displacement; assay type: binding; details: read-out: % Inhib mu (MOP) (h)
Text: as §1

5 major CYP enzymes = assay: CYP inhibition assay (all 5 enzymes); assay type: in vitro ADME; details: 30 μM, in words
CYP2C9 = CYP2C9 (Homo sapiens, UniProt P11712); assay: CYP inhibition assay; assay type: in vitro ADME; details: read-out: % Inhibition at 30 μM CYP 2C9
Chain of CYP2C9 (P11712 whole entry): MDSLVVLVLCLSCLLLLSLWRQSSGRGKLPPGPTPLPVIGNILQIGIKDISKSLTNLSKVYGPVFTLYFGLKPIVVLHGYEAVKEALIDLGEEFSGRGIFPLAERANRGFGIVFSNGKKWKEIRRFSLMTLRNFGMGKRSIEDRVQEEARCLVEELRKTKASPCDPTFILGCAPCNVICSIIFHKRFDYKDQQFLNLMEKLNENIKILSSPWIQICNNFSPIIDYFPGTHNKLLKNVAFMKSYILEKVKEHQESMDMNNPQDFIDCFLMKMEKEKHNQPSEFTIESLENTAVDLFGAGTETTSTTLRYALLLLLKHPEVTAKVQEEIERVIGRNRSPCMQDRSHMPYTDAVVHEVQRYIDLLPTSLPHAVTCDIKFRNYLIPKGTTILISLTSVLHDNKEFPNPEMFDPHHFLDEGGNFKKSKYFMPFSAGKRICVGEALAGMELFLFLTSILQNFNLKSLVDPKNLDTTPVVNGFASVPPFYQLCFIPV

Chain of N neuronal alpha 4beta 2 (h) (P43681 29-627 limits assumed): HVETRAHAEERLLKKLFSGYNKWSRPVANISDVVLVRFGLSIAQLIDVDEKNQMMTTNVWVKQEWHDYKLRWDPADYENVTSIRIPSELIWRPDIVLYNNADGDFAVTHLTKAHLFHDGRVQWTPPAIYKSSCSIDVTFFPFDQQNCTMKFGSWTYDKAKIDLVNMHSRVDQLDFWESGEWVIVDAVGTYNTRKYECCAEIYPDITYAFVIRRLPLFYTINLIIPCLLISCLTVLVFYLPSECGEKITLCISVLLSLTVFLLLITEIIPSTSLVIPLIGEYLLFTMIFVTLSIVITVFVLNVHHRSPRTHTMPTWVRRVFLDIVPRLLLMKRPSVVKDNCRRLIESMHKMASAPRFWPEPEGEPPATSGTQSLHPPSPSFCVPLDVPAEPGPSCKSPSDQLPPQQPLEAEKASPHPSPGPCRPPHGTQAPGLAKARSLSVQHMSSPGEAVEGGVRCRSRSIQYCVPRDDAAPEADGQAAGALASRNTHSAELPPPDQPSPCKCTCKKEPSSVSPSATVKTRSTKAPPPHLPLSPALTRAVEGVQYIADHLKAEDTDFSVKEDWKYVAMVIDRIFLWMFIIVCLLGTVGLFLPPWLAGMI
Chain of N neuronal alpha 4beta 2 (h) (P17787 26-502): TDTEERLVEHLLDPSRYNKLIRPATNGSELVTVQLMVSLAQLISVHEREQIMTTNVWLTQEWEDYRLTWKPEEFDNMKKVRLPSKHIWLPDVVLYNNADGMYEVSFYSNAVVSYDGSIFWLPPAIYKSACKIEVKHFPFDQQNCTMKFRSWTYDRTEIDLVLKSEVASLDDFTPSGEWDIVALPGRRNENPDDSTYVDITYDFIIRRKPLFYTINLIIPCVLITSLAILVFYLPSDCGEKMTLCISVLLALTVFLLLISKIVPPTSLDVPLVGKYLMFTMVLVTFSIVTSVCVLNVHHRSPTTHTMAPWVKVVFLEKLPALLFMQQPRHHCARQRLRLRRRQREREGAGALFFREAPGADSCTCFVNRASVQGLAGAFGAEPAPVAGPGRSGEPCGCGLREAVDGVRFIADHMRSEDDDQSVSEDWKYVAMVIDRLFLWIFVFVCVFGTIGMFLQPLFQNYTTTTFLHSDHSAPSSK
Chain of Lck kinase (h) (P06239 whole entry): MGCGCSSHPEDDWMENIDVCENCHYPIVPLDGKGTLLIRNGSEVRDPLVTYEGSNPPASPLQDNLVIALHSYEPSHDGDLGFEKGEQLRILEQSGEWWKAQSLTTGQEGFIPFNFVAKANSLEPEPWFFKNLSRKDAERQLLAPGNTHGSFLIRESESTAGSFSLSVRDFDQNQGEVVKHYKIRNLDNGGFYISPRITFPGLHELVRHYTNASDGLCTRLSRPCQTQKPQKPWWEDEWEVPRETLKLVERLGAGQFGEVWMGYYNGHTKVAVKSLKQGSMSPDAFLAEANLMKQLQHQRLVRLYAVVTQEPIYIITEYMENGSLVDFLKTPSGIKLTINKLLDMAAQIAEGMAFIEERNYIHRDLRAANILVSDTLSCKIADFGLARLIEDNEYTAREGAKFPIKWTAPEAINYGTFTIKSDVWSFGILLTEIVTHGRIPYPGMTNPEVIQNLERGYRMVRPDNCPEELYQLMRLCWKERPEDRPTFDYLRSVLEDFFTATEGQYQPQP
Chain of PDE3A (h) (Q14432 whole entry): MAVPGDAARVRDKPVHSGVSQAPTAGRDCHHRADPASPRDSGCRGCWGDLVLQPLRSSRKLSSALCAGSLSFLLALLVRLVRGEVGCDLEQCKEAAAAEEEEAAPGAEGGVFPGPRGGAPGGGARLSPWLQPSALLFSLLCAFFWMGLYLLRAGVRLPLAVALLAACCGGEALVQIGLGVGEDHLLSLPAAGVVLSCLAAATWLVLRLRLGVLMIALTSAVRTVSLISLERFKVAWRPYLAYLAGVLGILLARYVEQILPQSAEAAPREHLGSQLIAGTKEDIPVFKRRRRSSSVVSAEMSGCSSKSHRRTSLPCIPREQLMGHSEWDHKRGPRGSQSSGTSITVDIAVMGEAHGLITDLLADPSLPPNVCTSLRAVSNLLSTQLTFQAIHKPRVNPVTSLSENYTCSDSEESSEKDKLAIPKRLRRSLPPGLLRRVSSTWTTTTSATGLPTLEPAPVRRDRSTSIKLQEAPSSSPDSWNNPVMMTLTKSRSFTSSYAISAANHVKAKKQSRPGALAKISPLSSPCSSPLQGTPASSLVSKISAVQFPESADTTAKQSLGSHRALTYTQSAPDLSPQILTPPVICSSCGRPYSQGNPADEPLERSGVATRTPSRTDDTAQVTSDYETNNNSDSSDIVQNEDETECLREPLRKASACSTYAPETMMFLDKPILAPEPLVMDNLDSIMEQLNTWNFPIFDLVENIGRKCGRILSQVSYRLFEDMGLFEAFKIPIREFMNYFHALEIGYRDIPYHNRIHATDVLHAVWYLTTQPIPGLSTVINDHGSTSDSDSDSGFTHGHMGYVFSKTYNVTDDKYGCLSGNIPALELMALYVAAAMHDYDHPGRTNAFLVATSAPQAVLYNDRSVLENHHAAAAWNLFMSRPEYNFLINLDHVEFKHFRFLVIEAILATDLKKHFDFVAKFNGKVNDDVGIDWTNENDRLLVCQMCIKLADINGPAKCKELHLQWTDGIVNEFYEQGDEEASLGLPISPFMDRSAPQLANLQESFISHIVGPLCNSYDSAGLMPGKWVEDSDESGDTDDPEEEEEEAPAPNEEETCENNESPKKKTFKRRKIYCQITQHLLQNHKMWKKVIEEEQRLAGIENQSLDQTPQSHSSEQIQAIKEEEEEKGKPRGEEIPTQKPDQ
Chain of D2S (h) (P14416 1-414 isoform P14416-2): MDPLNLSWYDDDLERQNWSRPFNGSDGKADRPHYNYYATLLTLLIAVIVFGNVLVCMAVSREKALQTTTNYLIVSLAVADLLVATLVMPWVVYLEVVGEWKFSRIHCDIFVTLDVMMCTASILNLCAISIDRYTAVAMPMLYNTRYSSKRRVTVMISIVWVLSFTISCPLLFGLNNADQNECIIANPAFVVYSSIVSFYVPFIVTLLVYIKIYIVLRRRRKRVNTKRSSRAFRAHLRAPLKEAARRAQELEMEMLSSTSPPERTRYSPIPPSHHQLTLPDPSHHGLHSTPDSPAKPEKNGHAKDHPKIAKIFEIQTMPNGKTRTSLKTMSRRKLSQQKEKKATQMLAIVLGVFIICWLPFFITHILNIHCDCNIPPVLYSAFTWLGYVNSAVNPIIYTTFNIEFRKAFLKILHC
Chain of mu (MOP) (h) (P35372 whole entry): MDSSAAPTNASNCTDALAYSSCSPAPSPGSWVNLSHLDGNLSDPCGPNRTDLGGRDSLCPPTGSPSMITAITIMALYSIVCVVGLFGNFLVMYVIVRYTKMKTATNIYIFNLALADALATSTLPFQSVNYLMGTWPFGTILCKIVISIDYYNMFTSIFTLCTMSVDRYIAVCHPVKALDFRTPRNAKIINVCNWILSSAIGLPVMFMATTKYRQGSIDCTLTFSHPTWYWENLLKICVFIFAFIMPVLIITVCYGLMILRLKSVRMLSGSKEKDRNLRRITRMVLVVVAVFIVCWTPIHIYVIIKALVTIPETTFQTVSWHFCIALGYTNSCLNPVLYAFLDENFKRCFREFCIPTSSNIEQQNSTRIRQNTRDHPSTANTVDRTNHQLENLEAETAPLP
Chain of V1a (h) (P37288 whole entry): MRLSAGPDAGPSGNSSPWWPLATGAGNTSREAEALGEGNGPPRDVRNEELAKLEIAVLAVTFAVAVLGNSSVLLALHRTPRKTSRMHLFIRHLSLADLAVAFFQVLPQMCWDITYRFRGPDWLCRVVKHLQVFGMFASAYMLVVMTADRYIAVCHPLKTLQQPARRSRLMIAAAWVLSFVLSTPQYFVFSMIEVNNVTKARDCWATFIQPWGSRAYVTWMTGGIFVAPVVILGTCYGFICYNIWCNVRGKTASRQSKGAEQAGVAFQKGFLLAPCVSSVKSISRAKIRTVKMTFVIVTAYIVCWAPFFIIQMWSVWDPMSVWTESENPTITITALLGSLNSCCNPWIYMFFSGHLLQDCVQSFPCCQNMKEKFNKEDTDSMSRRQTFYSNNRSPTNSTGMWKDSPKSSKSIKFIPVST
Chain of 5-HT2B (h) (P41595 whole entry): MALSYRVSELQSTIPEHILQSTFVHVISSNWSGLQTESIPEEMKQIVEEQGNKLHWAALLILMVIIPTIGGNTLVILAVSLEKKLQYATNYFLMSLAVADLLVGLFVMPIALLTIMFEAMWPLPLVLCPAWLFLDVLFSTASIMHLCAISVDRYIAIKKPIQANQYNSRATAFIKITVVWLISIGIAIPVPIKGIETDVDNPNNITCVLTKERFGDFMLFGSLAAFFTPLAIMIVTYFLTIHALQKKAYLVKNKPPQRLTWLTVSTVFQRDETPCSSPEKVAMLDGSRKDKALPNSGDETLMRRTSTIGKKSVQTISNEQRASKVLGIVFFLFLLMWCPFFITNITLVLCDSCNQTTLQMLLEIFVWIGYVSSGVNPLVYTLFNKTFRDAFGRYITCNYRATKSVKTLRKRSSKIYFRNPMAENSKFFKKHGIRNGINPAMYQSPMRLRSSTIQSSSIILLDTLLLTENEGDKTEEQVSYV

For `Cc1ccccc1C(=O)Nc1nc(NC(=O)c2ccccc2C)n(-c2ccc(OC(F)(F)F)cc2)n1` [Compound 42, N,N′-(1-(4-(trifluoromethoxy)phenyl)-1H-1,2,4-triazole-3,5-diyl)bis(2-methylbenzamide)], the reduced tumor size [1] was “greater than 50%”, the “mitophagy / removal of damaged mitochondria” value [2] was “increases removal of damaged mictochondria” and the inhibition at 10 µM (5-HT2B (h)) was under 1%. The inhibition at 10 µM (D2S (h)) was under 1%, the inhibition at 10 µM (Lck kinase (h)) was 8% and the inhibition at 10 µM [3] was under 1%. The inhibition at 10 µM (PDE3A (h)) was 13%, the inhibition at 10 µM (V1a (h)) was 5% and the inhibition at 10 µM (mu (MOP) (h)) was 6%. For the same molecule, the “CYP inhibition activity for the 5 major CYP enzymes” value (5 major CYP enzymes) was “no significant CYP inhibition activity” and the inhibition at 30 μM (CYP2C9) was 11.8%.
